Experiments:
[1] = Zeta potential in H2O (Malvern DLS zetasizer); format: physicochemical; conditions: OVA8 or CpG 5 µM, mean ± SD, n = 3
Excerpt: (§1) The size and zeta potential of LPn[OVA8/CpG/LLP2A] in H2O were detected by Malvern DLS zetasizer with the equivalent concentration of OVA8 or CpG at 5 µΜ. The morphology of LPn[OVA8/CpG/LLP2A] was visualized by transmission electron microscope (TEM, 80 kV FEI Talos 120C).

[2] = test system: co‐culture of RF33.70 cells and the activated BMDCs; test: IL-2 secretion from co-culture of pretreated BMDCs and RF33.70 cells (ELISA); format: cell-based, mouse; conditions: BMDCs pretreated 16 h at 1 µM, co-culture with RF33.70 16 h, n = 3
Experimental: The differentiation of BMDC from bone marrow cells was performed as previously described.^[ [48] ^] 2 × 10^4 cells/well BMDCs were suspended in 200 µL medium without adding IL‐2 and IL‐4. BMDCs were treated with LPn[OVA8/CpG/LLP2A] containing 1 or 2 µM of OVA8 for 16 h. Each group contains approximately equivalent concentrations of CpG and OVA8 based on the data in Table S1 (Supporting Information). After that, the cells were centrifuged at 320 g for 5 min to remove the uninternalized drugs. Then the BMDC cells were resuspended in RPMI medium and were co‐incubated with 10 × 10^4 cells/well of RF33.70 cells for another 16 h. After that, the medium supernatant was collected. The IL‐2 concentration was measured by IL‐2 Mouse ELISA Kit (Thermo Fisher).
For the blocking experiment, BMDC cells were pre‐incubated with an excess of LLP2A‐P4 (100 µM) for 1 h. Then the cells were washed three times with PBS, before the treatment of 1 µM LP11[OVA8/CpG/LLP2A] for 16 h. After that, the cells were washed three times with PBS to get rid of the uninternalized drugs, followed by co‐culturing with RF33.70 cells. The IL‐2 level was quantified by ELISA as mentioned above.

[3] = Hydrodynamic size by DLS (Malvern zetasizer) in water; format: physicochemical; conditions: in H2O, OVA8 or CpG 5 µM, mean ± SD, n = 3
Experimental: The size and the dispersity of each of the three nanoconstructs in water were determined by Malvern zetasizer. […] (195.1 nm ± 61.1). […] To better understand how PVN nanoparticles are formed, we used LP11[OVA8/CpG/LLP2A] as an example and analyzed the hydrodynamic size, morphology, and spatial distribution of its components in various LP11‐based incomplete PVNs. It is well‐known that Class A CpG ODNs can self‐assemble into nanosized multimers because of their palindromic and poly‐guanine (G) tails.^[ [19], [21], [22] ^] […] To determine whether G‐quadruplex structures formed in the CpG ODN nanoclusters, we used nuclear magnetic resonance (NMR) to detect the CpG structure. […] Furthermore, hybridization with CpG, P3‐OVA8, and LLP2A‐P4 payloads increased the size of the final nanoparticle to 132.6 ± 71.7 nm.
as §1

Substance | zeta potential [1] [mV] | IL‐2 production [2] | average hydrodynamic size [3] [nm]
CCCCGTATGCA [LP11] | ~0 | barely induced | 
CpG: Class A CpG oligonucleotide, toll‐like receptor 9 agonist; 5′ ggGGTCAACGTTGAgggggg 3′, lowercase phosphorothioate (DNA GGGGTCAACGTTGAGGGGGG; DNA, linkages s2 o12 s5 (s phosphorothioate, o phosphodiester), methylation of C not given here; further chemistry not fully specified) | −24.3 ± 13.3 | barely induced | 62.3 ± 14.2
TAC‐K‐SIINFEKL [P3‐OVA8] | ~0 |  | 
